According to patent US7396837B2, “Antitumoral analogs of lamellarins” (Pharma Mar, S.A.U., priority 2002, dated 2008):
Where two headings read alike, the source gives them in different places.

Assays:
Assay type in all cases: cell-based
IGROV-ET = test: SRB colorimetric cell growth inhibition assay, IGROV-ET (ET-743 resistant); settings: Homo sapiens; for GI50: read-out: GI50 IGROV-ET; for CC50: read-out: LC50 IGROV-ET; for IC (TGI): read-out: TGI IGROV-ET
Method in brief: (§1)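 Cancer cells grown in vitro were continuously treated with compound. Cell mass was then determined by SRB staining and expressed as growth inhibition.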

SK-BR-3 = test: SRB colorimetric cell growth inhibition assay, SK-BR-3; settings: Homo sapiens
Method in brief: as §1

LoVo = test: SRB colorimetric cell growth inhibition assay, LoVo; settings: Homo sapiens, LoVo; for GI50: read-out: GI50 LOVO; for CC50: read-out: LC50 LOVO; for IC (TGI): read-out: TGI LOVO
Method in brief: as §1

K-562 = test: SRB colorimetric cell growth inhibition assay, K-562; settings: Homo sapiens
Text: (§2) The finality of these assays is to interrupt the growth of an “in vitro” tumor cell culture by means a continued exhibition of the cells to the sample to be testing.
(§3) A colorimetric type of assay, using sulforhodamine B (SRB) reaction has been adapted for a quantitative measurement of cell growth and viability (following the technique described by P. A. Skehan, et al., J. Natl. Cancer Inst. 1990, 82, 1107-1112).
(§4) This form of assay employs 96 well cell culture microplates of 9 mm diameter (T. Mosmann et al., J. of Immunological Methods 1983, 65, 55-63; G. T. Faircloth et al., J. of Tissue and Culture Methods 1988, 11, 201-205).
(§5) Most of the cell lines are obtained from American Type Culture Collection (ATCC) derived from different human cancer types.
(§6) The values for mean +/− SD of data from triplicate wells are calculated. Some parameters for cellular responses can be calculated: GI=growth inhibition, TGI=total growth inhibition (cytostatic effect) and LC=cell killing (cytotoxic effect).

HeLa-APL = test: SRB colorimetric cell growth inhibition assay, HeLa-APL (aplidine resistant); settings: Homo sapiens; for GI50: read-out: GI50 HELA-APL; for CC50: read-out: LC50 HELA-APL; for IC (TGI): read-out: TGI HELA-APL
Method in brief: as §1

IGROV = test: SRB colorimetric cell growth inhibition assay, IGROV; settings: Homo sapiens, IGROV; for GI50: read-out: GI50 IGROV; for CC50: read-out: LC50 IGROV; for IC (TGI): read-out: TGI IGROV
Method in brief: as §1

LNCaP = test: SRB colorimetric cell growth inhibition assay, LNCaP; settings: Homo sapiens, LNCaP; for GI50: read-out: GI50 LN-caP; for CC50: read-out: LC50 LN-caP; for IC (TGI): read-out: TGI LN-caP
Text: as §2, §3, §4, §5, §6

DU-145 = test: SRB colorimetric cell growth inhibition assay, DU-145; settings: Homo sapiens
Method in brief: as §1

A-549 = test: SRB colorimetric cell growth inhibition assay, A-549; settings: Homo sapiens
Method in brief: as §1

SK-MEL-28 = test: SRB colorimetric cell growth inhibition assay, SK-MEL-28; settings: Homo sapiens
Method in brief: as §1

HT-29 = test: SRB colorimetric cell growth inhibition assay, HT-29; settings: Homo sapiens
Method in brief: as §1

PANC-1 = test: SRB colorimetric cell growth inhibition assay, PANC-1; settings: Homo sapiens
Method in brief: as §1

HeLa = test: SRB colorimetric cell growth inhibition assay, HeLa; settings: Homo sapiens, HeLa; for GI50: read-out: GI50 HELA; for CC50: read-out: LC50 HELA; for IC (TGI): read-out: TGI HELA
Method in brief: as §1

LoVo-Dox = test: SRB colorimetric cell growth inhibition assay, LoVo-Dox (MDR); settings: Homo sapiens; for GI50: read-out: GI50 LOVO-DOX; for CC50: read-out: LC50 LOVO-DOX; for IC (TGI): read-out: TGI LOVO-DOX
Method in brief: as §1

[1] = cell killing (cytotoxic effect)
[2] = total growth inhibition (cytostatic effect)

COc1cc(-c2c3c4cc(OC)c(OC(=O)[C@H](C)NC(=O)[C@H](C)NC(=O)OC(C)(C)C)cc4oc(=O)c3n3ccc4c(OC(=O)[C@H](C)NC(=O)[C@H](C)NC(=O)OC(C)(C)C)c(OC)c(OC)cc4c23)ccc1OC(=O)[C@H](C)NC(=O)[C@H](C)NC(=O)OC(C)(C)C [Compound 6] was tested, and the GI50 (IGROV-ET) was 1390 nM, the CC50 (IGROV-ET) was 7.96 µM and the IC (TGI) (IGROV-ET) was 7.96 µM. It also gave a GI50 (SK-BR-3; SK-BR-3, read-out: GI50 SK-BR-3) of 548 nM, a CC50 (SK-BR-3; SK-BR-3, read-out: LC50 SK-BR-3) of 7.96 µM and an IC (TGI) (SK-BR-3; SK-BR-3, read-out: TGI SK-BR-3) of 2.56 µM. For the same molecule, the GI50 (LoVo) was 2790 nM, the CC50 (LoVo) was 7.96 µM and the IC (TGI) (LoVo) was 7.96 µM. It also gave a GI50 (K-562; K562, read-out: GI50 K-562) of 482 nM, a CC50 (K-562; K562, read-out: LC50 K-562) of 7.96 µM and an IC (TGI) (K-562; K562, read-out: TGI K-562) of 5.38 µM. The GI50 (HeLa-APL) was 3.41 µM, the CC50 (HeLa-APL) was 7.96 µM and the IC (TGI) (HeLa-APL) was 7.96 µM. It also gave a GI50 (IGROV) of 963 nM, a CC50 (IGROV) of 7.96 µM and an IC (TGI) (IGROV) of 7.96 µM. It also gave a GI50 (LNCaP) of 578 nM, a CC50 (LNCaP) of 7.96 µM and an IC (TGI) (LNCaP) of 7.96 µM. It also gave a GI50 (DU-145; DU-145, read-out: GI50 DU-145) of 355 nM, a CC50 (DU-145; DU-145, read-out: LC50 DU-145) of 7.96 µM and an IC (TGI) (DU-145; DU-145, read-out: TGI DU-145) of 1.46 µM. For the same molecule, the GI50 (A-549; A549, read-out: GI50 A-549) was 497 nM, the CC50 (A-549; A549, read-out: LC50 A-549) was 7.96 µM and the IC (TGI) (A-549; A549, read-out: TGI A-549) was 7.96 µM. For the same molecule, the GI50 (SK-MEL-28; SK-MEL-28, read-out: GI50 MEL-28) was 386 nM, the CC50 (SK-MEL-28; SK-MEL-28, read-out: LC50 MEL-28) was 7.96 µM and the IC (TGI) (SK-MEL-28; SK-MEL-28, read-out: TGI MEL-28) was 1.74 µM. For the same molecule, the GI50 (HT-29; HT-29, read-out: GI50 HT-29) was 7.96 µM, the CC50 (HT-29; HT-29, read-out: LC50 HT-29) was 7.96 µM and the IC (TGI) (HT-29; HT-29, read-out: TGI HT-29) was 7.96 µM. The GI50 (PANC-1; PANC-1, read-out: GI50 PANC-1) was 2460 nM, the CC50 (PANC-1; PANC-1, read-out: LC50 PANC-1) was 7.96 µM and the IC (TGI) (PANC-1; PANC-1, read-out: TGI PANC-1) was 7.96 µM. The GI50 (HeLa) was 584 nM, the CC50 (HeLa) was 7.96 µM and the IC (TGI) (HeLa) was 7.96 µM. The GI50 (LoVo-Dox) was 3.84 µM, the CC50 (LoVo-Dox) was 7.96 µM and the IC (TGI) (LoVo-Dox) was 7.96 µM.

COc1cc(-c2c3c4cc(OC)c(OC(=O)CCc5ccccc5)cc4oc(=O)c3n3ccc4cc(OC(=O)CCc5ccccc5)c(OC)cc4c23)ccc1OC(=O)CCc1ccccc1 [Compound 8] showed a GI50 (IGROV-ET; IGROV-ET, GI=growth inhibition) of 3350 nM, a CC50 (IGROV-ET; IGROV-ET, cell killing (cytotoxic effect)) of 11.2 µM and an IC (TGI) (IGROV-ET; IGROV-ET, total growth inhibition (cytostatic effect)) of 11.2 µM. For the same molecule, the GI50 (SK-BR-3; SK-BR-3, SK-BR-3, GI=growth inhibition, read-out: GI50 SK-BR-3) was 915 nM, the CC50 (SK-BR-3; SK-BR-3, SK-BR-3, cell killing (cytotoxic effect), read-out: LC50 SK-BR-3) was 9.19 µM and the IC (TGI) (SK-BR-3; SK-BR-3, SK-BR-3, total growth inhibition (cytostatic effect), read-out: TGI SK-BR-3) was 3.04 µM. It also gave a GI50 (LoVo; GI=growth inhibition) of 1480 nM, a CC50 (LoVo; [1]) of 11.2 µM and an IC (TGI) (LoVo; [2]) of 4.68 µM. For the same molecule, the GI50 (K-562; K562, K-562, GI=growth inhibition, read-out: GI50 K-562) was 225 nM, the CC50 (K-562; K562, K-562, cell killing (cytotoxic effect), read-out: LC50 K-562) was 7.49 µM and the IC (TGI) (K-562; K562, K-562, total growth inhibition (cytostatic effect), read-out: TGI K-562) was 1.57 µM. It also gave a GI50 (HeLa-APL; HELA-APL, GI=growth inhibition) of 7.3 µM, a CC50 (HeLa-APL; HELA-APL, cell killing (cytotoxic effect)) of 11.2 µM and an IC (TGI) (HeLa-APL; HELA-APL, total growth inhibition (cytostatic effect)) of 11.2 µM. For the same molecule, the GI50 (IGROV; GI=growth inhibition) was 445 nM, the CC50 (IGROV; [1]) was 11.2 µM and the IC (TGI) (IGROV; [2]) was 2.17 µM. The GI50 (LNCaP; LN-caP, GI=growth inhibition) was 654 nM, the CC50 (LNCaP; LN-caP, cell killing (cytotoxic effect)) was 7.21 µM and the IC (TGI) (LNCaP; LN-caP, total growth inhibition (cytostatic effect)) was 2.47 µM. For the same molecule, the GI50 (DU-145; DU-145, DU-145, GI=growth inhibition, read-out: GI50 DU-145) was 703 nM, the CC50 (DU-145; DU-145, DU-145, cell killing (cytotoxic effect), read-out: LC50 DU-145) was 9.43 µM and the IC (TGI) (DU-145; DU-145, DU-145, total growth inhibition (cytostatic effect), read-out: TGI DU-145) was 2.6 µM. For the same molecule, the GI50 (A-549; A549, A-549, GI=growth inhibition, read-out: GI50 A-549) was 744 nM, the CC50 (A-549; A549, A-549, cell killing (cytotoxic effect), read-out: LC50 A-549) was 11.2 µM and the IC (TGI) (A-549; A549, A-549, total growth inhibition (cytostatic effect), read-out: TGI A-549) was 6.34 µM. The GI50 (SK-MEL-28; SK-MEL-28, MEL-28, GI=growth inhibition, read-out: GI50 MEL-28) was 407 nM, the CC50 (SK-MEL-28; SK-MEL-28, MEL-28, cell killing (cytotoxic effect), read-out: LC50 MEL-28) was 11.2 µM and the IC (TGI) (SK-MEL-28; SK-MEL-28, MEL-28, total growth inhibition (cytostatic effect), read-out: TGI MEL-28) was 2.2 µM. For the same molecule, the GI50 (HT-29; HT-29, HT-29, GI=growth inhibition, read-out: GI50 HT-29) was 0.377 µM, the CC50 (HT-29; HT-29, HT-29, cell killing (cytotoxic effect), read-out: LC50 HT-29) was 11.2 µM and the IC (TGI) (HT-29; HT-29, HT-29, total growth inhibition (cytostatic effect), read-out: TGI HT-29) was 11.2 µM. It also gave a GI50 (PANC-1; PANC-1, PANC-1, GI=growth inhibition, read-out: GI50 PANC-1) of 231 nM, a CC50 (PANC-1; PANC-1, PANC-1, cell killing (cytotoxic effect), read-out: LC50 PANC-1) of 11.2 µM and an IC (TGI) (PANC-1; PANC-1, PANC-1, total growth inhibition (cytostatic effect), read-out: TGI PANC-1) of 0.865 µM. It also gave a GI50 (HeLa; GI=growth inhibition) of 276 nM, a CC50 (HeLa; [1]) of 7.92 µM and an IC (TGI) (HeLa; [2]) of 1.41 µM. For the same molecule, the GI50 (LoVo-Dox; LOVO-DOX, GI=growth inhibition) was 8.34 µM, the CC50 (LoVo-Dox; LOVO-DOX, cell killing (cytotoxic effect)) was 11.2 µM and the IC (TGI) (LoVo-Dox; LOVO-DOX, total growth inhibition (cytostatic effect)) was 11.2 µM.
